According to patent publication US20240252454A1, “COMPOSITION COMPRISING AN INHIBITOR OF MITOCHONDRIAL TRANSCRIPTION” (LEAD DISCOVERY CENTER GMBH, priority 2021, published 2024):

Assays:
[1] = PK and toxicological studies, plasma and liver concentrations; type: in vivo; conditions: oral combination of the IMT and Venetoclax in 0.5% methyl cellulose in water, NBSGW mice, 4 hours, plasma and liver (FIG. 4)
Experimental: Combinations s of 2-[(3R)-1-[(2R)-2-[4-(2-chloro-4-fluoro-phenyl)-2-oxo-chromen-7-yl]oxypropanoyl]-3-piperidyl]acetic acid and Venetoclax were administered orally in a formulation of 0.5% methyl cellulose in water, before the respective substance concentrations (y-axis) of Venetoclax (left) or 2-[(3R)-1-[(2R)-2-[4-(2-chloro-4-fluoro-phenyl)-2-oxo-chromen-7-yl]oxypropanoyl]-3-piperidyl]acetic acid (right) after 4 hours and extraction from blood plasma or liver tissue were analysed by LC-MS. Error bars indicate the standard deviation around the mean of the multiple measurements.
For this, a vehicle formulation suitable for the oral administration of the combination of Venetoclax and 2-[(3R)-1-[(2R)-2-[4-(2-chloro-4-fluoro-phenyl)-2-oxo-chromen-7-yl]oxypropanoyl]-3-piperidyl]acetic acid was prepared to examine its pharmacokinetic suitability. Since the formulations based on ethanol, PEG-400 and Phosal that have been published for Venetoclax have not proven to be suitable for generating an administrable solution or suspension of IMT and Venetoclax, a simplified formulation of 0.5% methyl cellulose in water was prepared, which was tested initially in PK and toxicological studies in NBSGW mice (FIG. 4). […] On the other hand, doses that could be safely used were established in this mouse model, with which the subsequent studies could be carried out.

[2] = test system: Venetoclax-resistant PDX AML cells; experiment: in vivo PDX study in a Venetoclax-resistant model; conditions: NSGS mice
Description: A=overview of the study implementation (corresponding to FIG. 5A) in NSGS mice injected with spleenocytes (n=12). B=flow cytometric analysis and % of live hCD45+AML cells in peripheral blood, spleen and bone marrow of the treated groups; C=immunohistological analysis of bone marrow and spleen tissue sections stained with hcd45 (brown); Quantitative analysis of the hCD45+ cells from C with three technical replicates (n=2). E=blood analysis of the survival group; F=Kaplan-Meier survival analysis (n=6 per group). […] The procedure was similar to that previously described for the CDX model, except for the addition of an endpoint control cohort in each treatment group.

MV4-11 [3] = experiment: CellTiter-GLO (CTG) assay, combinatorial matrix; type: cell-based; conditions: MV4-11, CTG matrix of the IMT with Bcl-2 inhibitor (Venetoclax, Table 10), wide concentration range
Experimental: To determine the in vitro cellular viability, cellular ATP concentrations were measured using a luminescence-based homogenous assay format, as described here. […] Optimal cell density for each cell line was determined to guarantee linearity. For viability assays with compounds, cells were then seeded at a density of 200 to 1000 per well in 25 μl in 384-well plates (Greiner Bio-One, Frickenhausen, Germany). After overnight incubation at 37° C./5% CO2, 25 nl or 75 nl compounds were added to each sample well by using BIOMEK FXP Laboratory Automation Workstation (Beckman Coulter, USA). Wells with cells and 0.1% or 0.3% DMSO in culture medium were used as positive controls, wells with cells and 10 μM staurosporine (Selleck Chemicals, Huston, USA) in culture medium were used as negative controls. […] Luminescence was measured by Envision Plate Reader (Perkin Elmer, USA). […]
The general suitability of IMT substances for a combination with standard inhibitors of the Bcl-2 signalling pathway was first determined in in vitro cell culture experiments in a matrix format (Table 10). The changes in the cellular ATP content, as an indicator of the metabolic activity of the cells, were measured using the CellTiter-GLO Assay (CTG), as described in Example 1).

OCI-AML2 = experiment: apoptosis induction, flow cytometry; type: cell-based; conditions: IMT alone, flow cytometry (FIG. 3)
Experimental: (§1) This analysis was carried out using flow cytometry and the established cellular markers for necrosis, apoptosis and living cells.
(§2) These experiments were followed by a broader analysis of the apoptosis induction by the inhibitor combination used in the four AML cell lines MV4-11, MOLM-13, OCI-AML3 and OCI-AML2 (FIG. 3). This analysis was carried out using flow cytometry and the established cellular markers for necrosis, apoptosis and living cells.

MOLM-13 = experiment: apoptosis induction, flow cytometry; type: cell-based
Experimental: as §1, §2

MV4-11 [4] = experiment: apoptosis induction, flow cytometry; type: cell-based
Experimental: as §1, §2

OCI-AML3 = experiment: apoptosis induction, flow cytometry; type: cell-based; conditions: IMT alone, flow cytometry (FIG. 3)
Experimental: as §1, §2

[5] = IMT alone, flow cytometry (FIG. 3)
[6] = IMT combined with Venetoclax, compared to Venetoclax alone

## C[C@@H](Oc1ccc2c(-c3ccc(F)cc3Cl)cc(=O)oc2c1)C(=O)N1CCC[C@H](CC(=O)O)C1 [2-[(3R)-1-[(2R)-2-[4-(2-chloro-4-fluoro-phenyl)-2-oxo-chromen-7-yl]oxypropanoyl]-3-piperidyl]acetic acid]
[1]
  PK parameters, in particular the plasma and tissue concentrations: do not significantly influence one another
[2]; IMT combined with Venetoclax vs individual inhibitors or control, peripheral blood, bone marrow, spleen (FIG. 6)
  tumour load and circulating hCD45-positive AML cells: significantly lower
[2]; IMT/Bcl-2i combination, treatment lasting 21 days
  overall survival (survival analysis): long-lasting, synergistic effect
MV4-11 [3]
  combinatorial effect (cellular ATP content): additive or even synergistic effect
OCI-AML2
  induction of apoptosis: cannot trigger apoptosis
MOLM-13; [5]
  induction of apoptosis: cannot trigger apoptosis
MOLM-13; [6]
  induction of apoptosis: increases the induction of apoptosis significantly
MV4-11 [4]; [5]
  induction of apoptosis: cannot trigger apoptosis
MV4-11 [4]; [6]
  induction of apoptosis: increases the induction of apoptosis significantly
OCI-AML3
  induction of apoptosis: cannot trigger apoptosis
